Test results taken from PubChem BioAssay AID328 (DTP/NCI, 2004).
Where “and” joins values, the source holds several entries; their conditions need not be identical. Identical values can stand only once. Toxic doses and inconclusive results are not listed.

Tested on: BDF1 mice, P388 leukemia ip, median survival T/C
Assay: NCI In Vivo Anticancer Drug Screen. Data for tumor model P388 Leukemia (intraperitoneal) in B6D2F1 (BDF1) mice
Settings: endpoint: median survival time, higher = longer survival
Summary of the method: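 T/C = treated-group survival ÷ vehicle-control survival; tumour transplanted into mice before dosing.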

[1] = dose: 25.0 mg/kg/injection, schedule: Q01DX009 (ip), vehicle: Klucel (hydroxypropylcellulose) (HPC)
[2] = dose: 50.0 mg/kg/injection, schedule: Q01DX009 (ip), vehicle: Klucel (hydroxypropylcellulose) (HPC)
[3] = dose: 100.0 mg/kg/injection, schedule: Q04DX003 (ip), vehicle: Klucel (hydroxypropylcellulose) (HPC)
[4] = dose: 200.0 mg/kg/injection, schedule: Q04DX003 (ip), vehicle: Klucel (hydroxypropylcellulose) (HPC)
[5] = dose: 400.0 mg/kg/injection, schedule: Q04DX003 (ip), vehicle: Klucel (hydroxypropylcellulose) (HPC)
[6] = dose: 12.5 mg/kg/injection, schedule: Q01DX009 (ip), vehicle: Klucel (hydroxypropylcellulose) (HPC)
[7] = dose: 100.0 mg/kg/injection, schedule: Q01DX009 (ip), vehicle: saline with Tween-80
[8] = dose: 100.0 mg/kg/injection, schedule: Q04DX003 (ip), vehicle: saline with Tween-80
[9] = dose: 200.0 mg/kg/injection, schedule: Q04DX003 (ip), vehicle: saline with Tween-80
[10] = dose: 400.0 mg/kg/injection, schedule: Q04DX003 (ip), vehicle: saline with Tween-80
[11] = dose: 50.0 mg/kg/injection, schedule: Q04DX003 (ip), vehicle: saline with Tween-80

**Q.** What does the source list for `Cc1ccc2n[nH]nc2c1`?
**A.** T/C [1]: 99 % of control; T/C [2]: 111 % of control; T/C (dose: 100.0 mg/kg/injection, schedule: Q01DX009 (ip), vehicle: Klucel (hydroxypropylcellulose) (HPC)): 107 % of control; T/C (dose: 200.0 mg/kg/injection, schedule: Q01DX009 (ip), vehicle: Klucel (hydroxypropylcellulose) (HPC)): 102 % of control

**Q.** For `CCC[As](CCC)SC1OC(COC(C)=O)C(OC(C)=O)C(OC(C)=O)C1OC(C)=O` (configuration not stated), which T/C (dose: 50.0 mg/kg/injection, schedule: Q01DX009 (ip), vehicle: saline + alcohol) is on record?
**A.** 109 % of control

**Q.** Which T/C (dose: 3.13 mg/kg/injection, schedule: Q04DX003 (ip), vehicle: saline) does the source give for `CC(C)(C)C[CH2][Hg][Cl]` here?
**A.** 105 % of control

**Q.** What about the T/C (dose: 6.25 mg/kg/injection, schedule: Q04DX003 (ip), vehicle: saline) of the same compound?
**A.** 100 % of control

**Q.** And the T/C (dose: 8.25 mg/kg/injection, schedule: Q04DX003 (ip), vehicle: saline sonified)?
**A.** 109 % of control

**Q.** And the T/C (dose: 12.5 mg/kg/injection, schedule: Q04DX003 (ip), vehicle: saline sonified)?
**A.** 113 % of control

**Q.** What about the T/C (dose: 18.75 mg/kg/injection, schedule: Q04DX003 (ip), vehicle: saline sonified) of the same compound?
**A.** 100 % of control

**Q.** What does the source list for `Cn1c(=O)n(C)c2ccccc21`?
**A.** T/C (dose: 15.0 mg/kg/injection, schedule: Q01DX001 (ip), vehicle: saline): 90 % of control; T/C (dose: 25.0 mg/kg/injection, schedule: Q01DX001 (ip), vehicle: saline with Tween-80): 90 % of control and 100 % of control; T/C (dose: 25.0 mg/kg/injection, schedule: Q01DX001 (ip), vehicle: saline): 90 % of control; T/C (dose: 35.0 mg/kg/injection, schedule: Q01DX001 (ip), vehicle: saline): 100 % of control; T/C (dose: 50.0 mg/kg/injection, schedule: Q01DX001 (ip), vehicle: saline with Tween-80): 104 % of control; T/C (dose: 50.0 mg/kg/injection, schedule: Q01DX001 (ip), vehicle: saline): 100 % of control; T/C (dose: 75.0 mg/kg/injection, schedule: Q01DX001 (ip), vehicle: saline): 90 % of control; T/C (dose: 100.0 mg/kg/injection, schedule: Q01DX001 (ip), vehicle: saline with Tween-80): 90 % of control and 95 % of control; T/C [3]: 95 % of control; T/C [4]: 91 % of control; T/C [5]: 91 % of control

**Q.** What does the source list for `COc1cc(C(=O)c2cocc2C(=O)c2ccc3c(c2)OCO3)cc(OC)c1OC`?
**A.** T/C (dose: 25.0 mg/kg/injection, schedule: Q01DX010 (ip), vehicle: saline): 108 % of control; T/C (dose: 50.0 mg/kg/injection, schedule: Q01DX010 (ip), vehicle: other): 123 % of control; T/C (dose: 50.0 mg/kg/injection, schedule: Q01DX010 (ip), vehicle: saline): 91 % of control; T/C (dose: 50.0 mg/kg/injection, schedule: Q01DX010 (ip), vehicle: water): 100 % of control; T/C (dose: 100.0 mg/kg/injection, schedule: Q01DX010 (ip), vehicle: other): 180 % of control; T/C (dose: 100.0 mg/kg/injection, schedule: Q01DX010 (ip), vehicle: saline): 86 % of control and 100 % of control; T/C (dose: 100.0 mg/kg/injection, schedule: Q01DX010 (ip), vehicle: water): 111 % of control; T/C (dose: 200.0 mg/kg/injection, schedule: Q01DX010 (ip), vehicle: other): 165 % of control; T/C (dose: 200.0 mg/kg/injection, schedule: Q01DX010 (ip), vehicle: saline): 90 % of control; T/C (dose: 200.0 mg/kg/injection, schedule: Q01DX010 (ip), vehicle: water): 155 % of control; T/C (dose: 400.0 mg/kg/injection, schedule: Q01DX010 (ip), vehicle: other): 173 % of control

**Q.** What does the source list for `C=CCNc1ccc(C)cc1`?
**A.** T/C [6]: 110 % of control; T/C [1]: 116 % of control; T/C [2]: 116 % of control; T/C [7]: 122 % of control

**Q.** Which results are given for `O=[N+]([O-])c1ccc(Cl)c(S(=O)O)c1`?
**A.** T/C (dose: 75.0 mg/kg/injection, schedule: Q04DX003 (ip), vehicle: saline): 95 % of control; T/C (dose: 150.0 mg/kg/injection, schedule: Q04DX003 (ip), vehicle: saline): 100 % of control; T/C (dose: 300.0 mg/kg/injection, schedule: Q04DX003 (ip), vehicle: saline): 95 % of control

**Q.** Which results are given for `COC(=O)c1cc(C)n(C)c(=O)c1CNS(=O)(=O)c1ccccc1`?
**A.** T/C [8]: 98 % of control; T/C [9]: 100 % of control; T/C [10]: 98 % of control

**Q.** How did the T/C (dose: 12.5 mg/kg/injection, schedule: Q01DX009 (ip), vehicle: saline) turn out when `NC(CCC(=O)c1ccccn1)C(=O)O` (configuration not stated) was run?
**A.** 103 % of control

**Q.** And the T/C (dose: 25.0 mg/kg/injection, schedule: Q01DX009 (ip), vehicle: saline)?
**A.** 117 % of control

**Q.** And the T/C (dose: 50.0 mg/kg/injection, schedule: Q01DX009 (ip), vehicle: saline)?
**A.** 98 % of control

**Q.** What about the T/C (dose: 100.0 mg/kg/injection, schedule: Q01DX009 (ip), vehicle: saline) of the same compound?
**A.** 117 % of control

**Q.** What does the source list for `CC(=O)CC(Cl)(C(F)(F)F)C(F)(F)F`?
**A.** T/C [11]: 100 % of control; T/C [8]: 100 % of control; T/C [9]: 109 % of control

**Q.** `CN1CCN(C(=O)Nc2ccc(N=Nc3ccccc3)cc2)CC1` was tested. Which T/C (dose: 4.16 mg/kg/injection, schedule: Q01DX009 (ip), vehicle: saline with Tween-80) did it give?
**A.** 100 % of control

**Q.** And the T/C (dose: 6.25 mg/kg/injection, schedule: Q01DX009 (ip), vehicle: saline with Tween-80)?
**A.** 90 % of control

**Q.** And the T/C (dose: 9.38 mg/kg/injection, schedule: Q01DX009 (ip), vehicle: saline with Tween-80)?
**A.** 90 % of control

**Q.** What about the T/C (dose: 50.0 mg/kg/injection, schedule: Q04DX003 (ip), vehicle: saline sonified) of the same compound?
**A.** 95 % of control

**Q.** What about the T/C (dose: 100.0 mg/kg/injection, schedule: Q04DX003 (ip), vehicle: saline sonified) of the same compound?
**A.** 100 % of control

**Q.** `O=C1C=C(c2ccccc2)C(c2ccccc2)C(c2ccccc2)C1` (configuration not stated) was tested. Which T/C [8] did it give?
**A.** 100 % of control

**Q.** What about the T/C [9] of the same compound?
**A.** 91 % of control

**Q.** What about the T/C [10] of the same compound?
**A.** 86 % of control

**Q.** How did the T/C (dose: 6.0 mg/kg/injection, schedule: Q04DX003 (ip), vehicle: Klucel (hydroxypropylcellulose) (HPC)) turn out when `CCCCNC1(C#N)CCN(Cc2ccccc2)CC1` was run?
**A.** 104 % of control

**Q.** What about the T/C (dose: 12.0 mg/kg/injection, schedule: Q04DX003 (ip), vehicle: Klucel (hydroxypropylcellulose) (HPC)) of the same compound?
**A.** 100 % of control

**Q.** What about the T/C [6] of the same compound?
**A.** 100 % of control

**Q.** And the T/C [1]?
**A.** 91 % of control

**Q.** And the T/C (dose: 25.0 mg/kg/injection, schedule: Q04DX003 (ip), vehicle: Klucel (hydroxypropylcellulose) (HPC))?
**A.** 96 % of control and 112 % of control

**Q.** With `CCOC(=O)C1CC1C(=O)O` (configuration not stated) as the compound, how does the T/C (dose: 100.0 mg/kg/injection, schedule: Q04DX003 (ip), vehicle: saline) read?
**A.** 103 % of control

**Q.** And the T/C (dose: 200.0 mg/kg/injection, schedule: Q04DX003 (ip), vehicle: saline)?
**A.** 114 % of control

**Q.** Which T/C (dose: 20.0 mg/kg/injection, schedule: Q01DX009 (ip), vehicle: saline with Tween-80) does the source give for `Clc1ccc(N=C/C=C\C=C/Nc2ccc(Cl)cc2)cc1` here?
**A.** 91 % of control

**Q.** Which results are given for `O=C(c1ccccc1)C1(Br)CCCCC1`?
**A.** T/C (dose: 75.0 mg/kg/injection, schedule: Q01DX009 (ip), vehicle: Klucel (hydroxypropylcellulose) (HPC)): 104 % of control; T/C (dose: 100.0 mg/kg/injection, schedule: Q01DX001 (ip), vehicle: Klucel (hydroxypropylcellulose) (HPC)): 100 % of control; T/C [3]: 109 % of control; T/C (dose: 150.0 mg/kg/injection, schedule: Q01DX009 (ip), vehicle: Klucel (hydroxypropylcellulose) (HPC)): 95 % of control; T/C (dose: 200.0 mg/kg/injection, schedule: Q01DX001 (ip), vehicle: Klucel (hydroxypropylcellulose) (HPC)): 104 % of control; T/C [4]: 104 % of control; T/C (dose: 300.0 mg/kg/injection, schedule: Q01DX009 (ip), vehicle: Klucel (hydroxypropylcellulose) (HPC)): 86 % of control; T/C (dose: 400.0 mg/kg/injection, schedule: Q01DX001 (ip), vehicle: Klucel (hydroxypropylcellulose) (HPC)): 104 % of control; T/C [5]: 109 % of control

**Q.** `O=S(=O)(Cc1ccc(Cl)cc1)c1nc2ccccc2s1` was tested. Which T/C (dose: 50.0 mg/kg/injection, schedule: Q01DX005 (ip), vehicle: saline with Tween-80) did it give?
**A.** 107 % of control

**Q.** What about the T/C (dose: 100.0 mg/kg/injection, schedule: Q01DX005 (ip), vehicle: saline with Tween-80) of the same compound?
**A.** 105 % of control

**Q.** What does the source list for `O=C1CC/C(=N\O)N1`?
**A.** T/C (dose: 75.0 mg/kg/injection, schedule: Q01DX009 (ip), vehicle: saline): 93 % of control; T/C (dose: 150.0 mg/kg/injection, schedule: Q01DX009 (ip), vehicle: saline): 86 % of control

**Q.** With `COC1(OC)C2(Cl)CC(c3ccc(Cl)cc3)C1(Cl)C(Cl)=C2Cl` (configuration not stated) as the compound, how does the T/C [11] read?
**A.** 100 % of control

**Q.** And the T/C [8]?
**A.** 95 % of control

**Q.** And the T/C [9]?
**A.** 90 % of control

**Q.** Which T/C [7] does the source give for `CC(C)=CCC/C(C)=C/CN1C(=O)c2ccccc2C1=O` here?
**A.** 92 % of control

**Q.** What about the T/C [8] of the same compound?
**A.** 87 % of control

**Q.** What about the T/C (dose: 200.0 mg/kg/injection, schedule: Q01DX009 (ip), vehicle: saline with Tween-80) of the same compound?
**A.** 92 % of control

**Q.** What about the T/C [9] of the same compound?
**A.** 96 % of control

**Q.** What about the T/C (dose: 400.0 mg/kg/injection, schedule: Q01DX009 (ip), vehicle: saline with Tween-80) of the same compound?
**A.** 108 % of control

**Q.** What about the T/C [10] of the same compound?
**A.** 94 % of control
